In US11691928B2, “Compositions, systems and methods for delivery of an element in response to biological demand” (Lucent Biosciences, Inc., priority 2018, dated 2023):

Key:
[1] = Effect of composition on pH of surrounding tap water; type: physicochemical; conditions: 4 ppm iron; tap water alone 6.93
Description: Since the pH of water is an important factor in biology for microorganism growth and survival, experiments were undertaken to determine what effect the compositions had on the pH of surrounding water.
The effects of 4 ppm iron-loaded composition (“Fe—WP”), iron chloride and iron sulfate on the pH of tap water was examined. […] However, the same amount of iron with sources of iron chloride and iron sulfate reduced the pH of tap water within a range of 1.6-2.9 units.

[2] = tested on: mung bean plants; experiment: Plant growth study with salts or compositions comprising zinc or manganese on wood pulp in soil at elevated concentrations; type: in vivo
Description: Mung bean seeds were planted in 2 g of sterile sunshine mix soil in autoclaved jars. […] The wood pulp, acting as the carrier, was Canfor 350/70-1 (carrier C from Table 1). […] The root length was measured from start of roots to longest root tip. […] The plants to be used in the presence of compositions as disclosed herein were sowed in 2 g of sunshine mix to which 0.1 g of the composition was added, made of various concentrations of zinc or manganese. These were all watered with 5 mL deionized water. The beans grew in this treatment for 9 further days.

Row | Compound | PH of tap water [1] | toxicity for mung bean plants ([2]; 2000 ppm in soil) | mung bean stem height and root length growth ([2]; 2000 ppm zinc as salt in soil, 9 days, FIGS. 7(a), 7(b))
1 | O=S(=O)([O-])[O-].O=S(=O)([O-])[O-].O=S(=O)([O-])[O-].[Fe+3].[Fe+3] [Fe2(SO4)3, iron sulfate] | 4.17 |  | 
2 | [Cl-].[Cl-].[Zn+2] [zinc, zinc chloride] |  | exhibits toxicity | reduced stem height and root length growth
3 | iron chloride [FeCl3] | 4.03 |  | 
